Among the test systems are CAKI-1 renal; HOP-92 NSCLC; HT29 colon; NCI-H23 lung; OVCAR-4 ovarian; SF-295 CNS; SK-MEL-2 melanoma; SNB-75 CNS; UACC-257 melanoma; A498 renal.
Common to all, as to test: NCI-60 cell line screen, 48 h

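Grown in 96-well plates, cells were treated for 48 hours with each compound at five concentrations. Insufficient inhibition: endpoint recorded as highest concentration tested. GI50 = concentration required for 50% inhibition of growth. TGI denotes the concentration required for complete inhibition of growth.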 Where only a bound is given, the exact number is not on record here.

Take `C/C=C1/C(=Cc2[nH]c(C=c3[nH]/c(=C/C4=NC(=O)C(CC)=C4C)c(C)c3CCC(=O)O)c(CCC(=O)O)c2C)NC(=O)C1C` (stereo not given): the TGI in the assay with CAKI-1 renal was greater than 50 µM; in the assay on HOP-92 NSCLC, 15.9 µM; with HT29 colon it was 49 µM; in the assay with NCI-H23 lung, greater than 50 µM; in the assay with OVCAR-4 ovarian, greater than 50 µM; in the assay with SF-295 CNS it was 18.5 µM. The TGI in the assay with SK-MEL-2 melanoma is 20.3 µM; in the assay on SNB-75 CNS, greater than 50 µM; in the assay on UACC-257 melanoma it was 24.9 µM.

On to `CC(C)(C)OC(=O)C1/C(=C/CBr)CN1C(=O)OC(C)(C)C` (stereo not given), for which the TGI was 31.8 µM in the assay on A498 renal; 30.5 µM in the assay with CAKI-1 renal; 31.8 µM in the assay on HOP-92 NSCLC; greater than 100 µM in the assay on HT29 colon; 28.8 µM in the assay with NCI-H23 lung; 7.79 µM with OVCAR-4 ovarian. Moreover, the TGI came to 30.5 µM with SF-295 CNS and 32.3 µM with UACC-257 melanoma.

With `CC(C)=CCOc1ccc(-c2coc3cc4c(c(O)c3c2=O)C=CC(C)(C)O4)cc1`, the TGI in the assay with A498 renal was 98.7 µM; in the assay with HT29 colon, greater than 100 µM; in the assay on NCI-H23 lung, greater than 100 µM; in the assay on OVCAR-4 ovarian, 80 µM; in the assay on SF-295 CNS, greater than 100 µM; with UACC-257 melanoma it was greater than 100 µM.

Regarding `CCOC(=O)c1ccc(N(CCOS(=O)(=O)c2ccc(C)cc2)CCOS(=O)(=O)c2ccc(C)cc2)cc1`, the TGI in the assay on A498 renal, in the assay with CAKI-1 renal, in the assay on HOP-92 NSCLC, in the assay on HT29 colon, with NCI-H23 lung and in the assay with OVCAR-4 ovarian was greater than 100 µM each time. Further, the figures for the TGI with SF-295 CNS, in the assay on SK-MEL-2 melanoma and in the assay with UACC-257 melanoma were greater than 100 µM, 66.8 µM and greater than 100 µM, respectively.

For the molecule `O=C1C2C3C=C4c5ccccc5N(c5ccccc5)C4([C@@H]2C(=O)N1c1ccc(F)cc1)[C@H]1C(=O)N(c2ccc(F)cc2)C(=O)[C@@H]31` (stereo not given in full), the TGI in the assay with HOP-92 NSCLC, in the assay with NCI-H23 lung, in the assay with SF-295 CNS, in the assay on SK-MEL-2 melanoma, in the assay on SNB-75 CNS and with UACC-257 melanoma was greater than 100 µM throughout.

Turning to `CC(=O)OCC1OC(n2c(O)c(N=NC(N)=S)c3ccc([N+](=O)[O-])cc32)C(OC(C)=O)C1OC(C)=O` (stereo not given), the TGI in the assay with CAKI-1 renal is greater than 100 µM; in the assay on HOP-92 NSCLC it was greater than 100 µM; with HT29 colon it was 96.2 µM; with NCI-H23 lung, 42.1 µM; in the assay with OVCAR-4 ovarian, 43.3 µM; in the assay on SF-295 CNS, greater than 100 µM. Besides, the TGI in the assay with SK-MEL-2 melanoma is 47.2 µM; with SNB-75 CNS, 82.8 µM; in the assay on UACC-257 melanoma, greater than 100 µM.

`CC(O)C1OC(n2ccc(=O)[nH]c2=O)CC1n1cncn1` (stereo not given): the TGI in the assay with A498 renal, in the assay on CAKI-1 renal, with HT29 colon, in the assay on NCI-H23 lung, in the assay on OVCAR-4 ovarian and with SF-295 CNS was greater than 100 µM throughout. Also, the TGI in the assay with SK-MEL-2 melanoma, in the assay on SNB-75 CNS and in the assay on UACC-257 melanoma was greater than 100 µM in each case. Besides, in the assay with SNB-75 CNS, the GI50 is greater than 100 µM.

For `CCOC(=O)c1ccn2c(c1)c(C#N)c1nc3ccccc3nc12`, the TGI in the assay on A498 renal, in the assay with CAKI-1 renal, with NCI-H23 lung, in the assay with OVCAR-4 ovarian, with SK-MEL-2 melanoma and in the assay with SNB-75 CNS was greater than 100 µM each time. Further, the TGI in the assay with UACC-257 melanoma is greater than 100 µM.

Consider `O=C1c2c(O)cccc2Cc2cc(CO)cc(O)c21`, for which the TGI in the assay on A498 renal was 17.8 µM; in the assay on HOP-92 NSCLC, 4.21 µM; in the assay with HT29 colon, greater than 100 µM; in the assay with NCI-H23 lung, 6.06 µM; in the assay with OVCAR-4 ovarian it was 14.4 µM; in the assay on SF-295 CNS, 5.85 µM. Moreover, the TGI in the assay with SNB-75 CNS was determined as 5.44 µM; with UACC-257 melanoma, 5.64 µM.

On to `COc1cc2cnc3c4cc(OC)c(OC(C)C)cc4ccc3c2cc1OC`, for which the TGI in the assay with CAKI-1 renal, with HOP-92 NSCLC, in the assay with HT29 colon, with NCI-H23 lung, in the assay with OVCAR-4 ovarian and with SF-295 CNS was greater than 100 µM throughout. Besides, the TGI in the assay on SK-MEL-2 melanoma, in the assay with SNB-75 CNS and in the assay on UACC-257 melanoma was greater than 100 µM throughout.

`COc1cc(/C=N/n2c(C)n[nH]c2=O)cc(OC)c1OC`: the TGI in the assay with A498 renal, in the assay with CAKI-1 renal, in the assay with HT29 colon, in the assay on NCI-H23 lung, in the assay with OVCAR-4 ovarian and in the assay on SF-295 CNS was greater than 100 µM each time. Also, the TGI in the assay with SK-MEL-2 melanoma, with SNB-75 CNS and in the assay on UACC-257 melanoma was greater than 100 µM in each case.

With `C[Si](C)(C)/C=C/CN1C(=O)CCC1=O`, the TGI with A498 renal, in the assay with HOP-92 NSCLC, with HT29 colon, in the assay with NCI-H23 lung, in the assay on SK-MEL-2 melanoma and in the assay on SNB-75 CNS was greater than 100 µM in each case.

As to `CCc1cccc(NC(=O)c2cc(/C=C/c3ccccc3)[nH]c(=S)n2)c1`, the TGI in the assay on A498 renal, in the assay with HOP-92 NSCLC, with HT29 colon, in the assay with NCI-H23 lung, in the assay on OVCAR-4 ovarian and in the assay on SF-295 CNS was greater than 100 µM in each case. Besides, the TGI in the assay on SK-MEL-2 melanoma, in the assay with SNB-75 CNS and in the assay with UACC-257 melanoma was greater than 100 µM throughout.

Values taken from PubChem BioAssay (NCI).
